The text below walks through data of patent US10246462B2, “Chemokine receptor modulators and uses thereof” (FLX Bio, Inc., priority 2016, dated 2019).

As usually defined, the IC50 is the point on the concentration scale where inhibition reaches its midpoint.

Where a name gives a salt, the structure may show the parent alone.

This assay concerns the target CCR4 (Homo sapiens (Human), UniProt P51679). Briefly: Calcium mobilization (Ca Flux) assay. The format is cell-based. The protocol: Calcium Mobilization Assay. Calcium mobilization experiments may be performed by labeling the human T-cell line CEM with […] dye (45 min at room temperature), washing with PBS, and re-suspending into flux buffer (HBSS with 1% FBS).
Background: Calcium flux is commonly read through the fluorescence of an indicator in the cells.

CCR4, sequence (P51679 whole entry): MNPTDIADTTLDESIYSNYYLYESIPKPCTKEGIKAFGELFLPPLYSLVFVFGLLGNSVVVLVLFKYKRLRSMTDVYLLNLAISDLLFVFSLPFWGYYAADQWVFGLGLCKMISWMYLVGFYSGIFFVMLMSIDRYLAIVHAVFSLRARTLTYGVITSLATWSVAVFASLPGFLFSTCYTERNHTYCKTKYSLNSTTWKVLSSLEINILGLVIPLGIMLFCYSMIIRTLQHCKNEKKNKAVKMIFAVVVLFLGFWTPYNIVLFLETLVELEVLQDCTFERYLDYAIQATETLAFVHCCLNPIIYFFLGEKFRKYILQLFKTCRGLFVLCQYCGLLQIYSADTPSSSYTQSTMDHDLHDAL

Take `C[C@H](c1ccc(Cl)cc1Cl)n1nc(C#N)c2ncc(C3=CC[C@@H](N4CCC[C@H]4CO)[C@@H](C)C3)nc21` [Example 75, 1-((R)-1-(2,4-Dichlorophenyl)ethyl)-6-((4R,5S)-4-((S)-2-(hydroxymethyl)pyrrolidin-1-yl)-5-methylcyclohex-1-en-1-yl)-1H-pyrazolo[3,4-b]pyrazine-3-carbonitrile]: the IC50 was 100 to 500 nM.
The value for `C[C@@H]1CC(c2cnc3c(C#N)nn([C@H](C)c4ccc(Cl)cc4Cl)c3n2)=CC[C@@H]1N1CCC[C@H]1CO` [Example 76, 1-((R)-1-(2,4-Dichlorophenyl)ethyl)-6-((4S,5R)-4-((S)-2-(hydroxymethyl)pyrrolidin-1-yl)-5-methylcyclohex-1-en-1-yl)-1H-pyrazolo[3,4-b]pyrazine-3-carbonitrile] was less than 100 nM; that for `Cc1nn([C@H](C)c2ccc(Cl)cc2Cl)c2nc(C3=CCC(N4CCC[C@H]4CCC(N)=O)[C@H](C)C3)cnc12` (stereo partly drawn) [Example 77, 3-((S)-1-((1S,6R)-4-(1-((R)-1-(2,4-Dichlorophenyl)ethyl)-3-methyl-1H-pyrazolo[3,4-b]pyrazin-6-yl)-6-methylcyclohex-3-en-1-yl)pyrrolidin-2-yl)propanamide 2,2,2-trifluoroacetae] was less than 100 nM; that for `Cc1nn([C@H](C)c2ccc(Cl)cc2Cl)c2nc(C3=CCC(N4CCC[C@H]4CO)C(C)C3)cnc12` (stereo partly drawn) [Example 78, ((2S)-1-(4-(1-((R)-1-(2,4-Dichlorophenyl)ethyl)-3-methyl-1H-pyrazolo[3,4-b]pyrazin-6-yl)-6-methylcyclohex-3-en-1-yl)pyrrolidin-2-yl)methanol] was less than 100 nM.
The value for `CC1CC(c2cnc3c(C#N)nn([C@H](C)c4ccc(Cl)cc4Cl)c3n2)=CCC1N1CCC[C@H]1C(N)=O` (stereo partly drawn) [Example 79, (2S)-1-(4-(3-Cyano-1-((R)-1-(2,4-dichlorophenyl)ethyl)-1H-pyrazolo[3,4-b]pyrazin-6-yl)-6-methylcyclohex-3-en-1-yl)pyrrolidine-2-carboxamide hydrochloride] was less than 100 nM; that for `C[C@H](c1ccc(Cl)cc1Cl)n1nc(C#N)c2ncc(C3=CC[C@@H](N4CCC[C@H]4C(N)=O)[C@@H](C)C3)nc21` [Example 80, (S)-1-((1R,6S)-4-(3-Cyano-1-((R)-1-(2,4-dichlorophenyl)ethyl)-1H-pyrazolo[3,4-b]pyrazin-6-yl)-6-methylcyclohex-3-en-1-yl)pyrrolidine-2-carboxamide hydrochloride] was 100 to 500 nM; that for `C[C@@H]1CC(c2cnc3c(C#N)nn([C@H](C)c4ccc(Cl)cc4Cl)c3n2)=CC[C@@H]1N1CCC[C@H]1CN` [Example 81, 6-((4S,5R)-4-((S)-2-(Aminomethyl)pyrrolidin-1-yl)-5-methylcyclohex-1-en-1-yl)-1-((R)-1-(2,4-dichlorophenyl)ethyl)-1H-pyrazolo[3,4-b]pyrazine-3-carbonitrile hydrochloride] was 100 to 500 nM.
On to `C[C@@H]1CC(c2cnc3c(C#N)nn([C@H](C)c4ccc(Cl)cc4Cl)c3n2)=CC[C@@H]1N1CCC[C@H]1CNS(C)(=O)=O` [Example 82, N—(((S)-1-((1S,6R)-4-(3-Cyano-1-((R)-1-(2,4-dichlorophenyl)ethyl)-1H-pyrazolo[3,4-b]pyrazin-6-yl)-6-methylcyclohex-3-en-1-yl)pyrrolidin-2-yl)methyl)methanesulfonamide hydrochloride], for which the IC50 was in the range of 100 to 500 nM.
For the compound `C[C@@H]1CC(c2cnc3c(C#N)nn([C@H](C)c4ccc(Cl)cc4Cl)c3n2)=CCC1N1CCC[C@H]1C` (stereo partly shown) [Example 83], the IC50 is less than 100 nM.
To `Cc1nn([C@H](C)c2ccc(Cl)cc2Cl)c2nc(C3=CC[C@H](N4CCC[C@H]4C(N)=O)[C@H](C)C3)cnc12` [Example 86, (S)-1-((1S,6R)-4-(1-((R)-1-(2,4-Dichlorophenyl)ethyl)-3-methyl-1H-pyrazolo[3,4-b]pyrazin-6-yl)-6-methylcyclohex-3-en-1-yl)pyrrolidine-2-carboxamide hydrochloride] belongs 100 to 500 nM.
For `C[C@@H]1CC(c2cnc3c(C#N)nn([C@H](C)c4ccc(Cl)cc4Cl)c3n2)=CCC1N1CCC[C@H]1C(O)CS(C)(=O)=O` (stereo partly drawn) [Example 87, 1-((R)-1-(2,4-Dichlorophenyl)ethyl)-6-((4S,5R)-4-((2S)-2-(1-hydroxy-2-(methylsulfonyl)ethyl)pyrrolidin-1-yl)-5-methylcyclohex-1-en-1-yl)-1H-pyrazolo[3,4-b]pyrazine-3-carbonitrile hydrochloride], the IC50 was less than 100 nM.
The value for `CC1CC(c2cnc3c(C(F)(F)F)nn([C@H](C)c4ccc(Cl)cc4Cl)c3n2)=CCC1N1CCC[C@H]1C` (stereo partly drawn) [Example 88, 1-((R)-1-(2,4-Dichlorophenyl)ethyl)-6-(5-methyl-4-((R)-2-methylpyrrolidin-1-yl)cyclohex-1-en-1-yl)-3-(trifluoromethyl)-1H-pyrazolo[3,4-b]pyrazine trifluoroacetic acid] was 100 to 500 nM; that for `CC1CC(c2cnc3c(C(F)(F)F)nn([C@H](C)c4ccc(Cl)cc4Cl)c3n2)=CCC1N1CCC[C@H]1CO` (stereo partly shown) [Example 89] was 100 to 500 nM.
The value for `C[C@@H]1CN(c2cnc3c(C#N)nn([C@H](C)c4ccc(Cl)cc4F)c3n2)CC[C@@H]1N1CCC[C@H]1CCC(=O)O` [Example 90, 3-((S)-1-((3R,4S)-1-(1-((R)-1-(4-chloro-2-fluorophenyl)ethyl)-3-cyano-1H-pyrazolo[3,4-b]pyrazin-6-yl)-3-methylpiperidin-4-yl)pyrrolidin-2-yl)propanoic acid hydrochloric acid] was less than 100 nM; that for `CNC(=O)[C@@H]1CCCN1[C@H]1CC=C(c2cnc3c(C#N)nn([C@H](C)c4ccc(Cl)cc4Cl)c3n2)C[C@H]1C` [Example 91, (S)-1-((1S,6R)-4-(3-Cyano-1-((R)-1-(2,4-dichlorophenyl)ethyl)-1H-pyrazolo[3,4-b]pyrazin-6-yl)-6-methylcyclohex-3-en-1-yl)-N-methylpyrrolidine-2-carboxamide trifluoroacetate] was 100 to 500 nM.
To `CCN(CC1(O)COC1)C1CC=C(c2cnc3c(C#N)nn([C@H](C)c4ccc(Cl)cc4Cl)c3n2)CC1C` (stereo partly drawn) [Example 92, 1-((R)-1-(2,4-dichlorophenyl)ethyl)-6-(4-(ethyl((3-hydroxyoxetan-3-yl)methyl)amino)-5-methylcyclohex-1-en-1-yl)-1H-pyrazolo[3,4-b]pyrazine-3-carbonitrile] belongs 100 to 500 nM.
